Experimental data taken from US20070191402A1, “Method of searching substrate having antidiabetic activity” (KYOWA HAKKO KOGYO CO., LTD., priority 2002, published 2007).

Legend:
[1] = test system: MIN6 cell; assay: Insulin secretion test using MIN6 cell; format: cell-based, murine; conditions: MIN6 cell; glucose 14.5 mmol/l or 8.4 mmol/l
Method: Culturing MIN6 cell and testing insulin secretion using MIN6 cell were carried out according to the method described in Diabetorogia, 36, 1139-1145 (1993).
In other words, the influence of a compound on the insulin secretion activity in the presence of 14.5 mmol/l glucose was assessed by assaying the amount of insulin in the cell culture supernatant collected as follows.
The MIN6 cell cultured in a 24-well plate was washed twice with 1 ml of buffer A [119 mmol/l NaCl, 4.74 mmol/l KCl, 2.54 mmol/l CaCl2, 1.19 mmol/l MgSO4, 1.19 mmol/l KH2PO4, 10 mmol/l 2-[4-(2-hydroxylethyl)-1-piperadinyl]ethanesulfonic acid, 0.1% BSA, pH 7.3] containing 2 mmol/l glucose. Subsequently, the resulting cell was incubated in 1 ml of the buffer A containing 2 mmol/l glucose at 37° C. for 45 minutes. The culture supernatant was exchanged with the buffer A (1 ml) containing test compounds of various concentrations and 8.4 mmol/l glucose and incubated at 37° C. for 45 minutes to collect the culture supernatant.
Antibody-reactive insulin secreted in the culture supernatant was assayed by radioimmunoassay [Methods in Investigative and Diagnostic Endocrinology, Vol. 2A, 2B, North-Holland Publishing Co., Amsterdam (1973)] after the culture supernatant was diluted with phosphate buffer containing 1% BSA, 0.1% Tween 20, 0.12% EDTA 2Na, and 0.1% sodium azide. A standard curve was prepared by using human insulin as the standard substance, and individual insulin values were calculated on the basis of the curve.

[2] = target: T1, His-p31 protein (Mus musculus, UniProt Q99LB2); assay: Enzyme activity inhibition of His-p31 protein (NADPH decrease, p-chlorobenzaldehyde); format: biochemical; conditions: p-chlorobenzaldehyde 250 μmol/l, NADPH 5 μmol/l, 37° C., absorbance at 340 nm
T1 construct: a gene part encoding the full-length p31 protein was prepared by polymerase chain reaction (PCR); made in house; host or cells: Escherichia coli BL21 / pET-14b-p31
T1 sequence (Q99LB2 20-279 limits assumed): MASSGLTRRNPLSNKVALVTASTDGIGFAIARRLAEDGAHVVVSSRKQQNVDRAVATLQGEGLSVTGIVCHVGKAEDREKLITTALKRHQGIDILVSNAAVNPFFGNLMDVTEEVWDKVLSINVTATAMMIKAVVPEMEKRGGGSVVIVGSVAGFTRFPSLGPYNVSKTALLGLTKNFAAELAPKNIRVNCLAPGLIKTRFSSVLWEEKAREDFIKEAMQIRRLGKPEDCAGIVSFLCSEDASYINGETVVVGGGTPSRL
Method: NADPH was added to 1 ml of a solution of 10 mmol/Tris-HCl, 100 mmol/l NaCl and 2 mmol/l EDTA, pH 7.4 containing the His-p31 protein prepared in Example 12 at 1 μg/ml and p-chlorobenzaldehyde at 250 μmol/l to give a final concentration of 5 μmol/l and incubated at 37° C. Then, the NADPH decrease following the decomposition of p-chlorobenzaldehyde in the presence or absence of a tested substance was detected at the absorbance at 340 nm.

SMILES: CCCN1C(=O)N2C[C@@H](Cc3ccccc3)N=C2c2[nH]c(C3CCCC3)nc21 [compound 16]
- Insulin secretory activity (%) [1]: 83.2%
- enzyme activity inhibition of the His-p31 protein [2]: strongly inhibited the activity of the protein
